Earlier results on one substance are cited in article PMC3277211 (Journal of the American Chemical Society, 2011).

The MIC is the least concentration at which growth counts as inhibited.

For one data set, the system named is C. glutamicum DSM 44475. Particulars: included for comparison.
A further data set concerns S. pneumoniae R800. Particulars: included for comparison.
Another data set has as its system E. coli P84L PAS0260. To be noted: E. coli MG1655 LepB(P84L) PAS0260; included for comparison.
Another data set concerns S. pyogenes MGAS-1. Particulars: included for comparison.
A further data set relates to R. opacus DSM 1069. To be noted: included for comparison.
Another data set deals with P. aeruginosa PAO1. Particulars: P. aeruginosa PAO1 wild type; included for comparison.
The test system of a further data set is S. aureus NCTC 8325. To be noted: S. aureus NCTC 8325 wild type; included for comparison.
The next data set has as its system S. epidermidis RP62A. To be noted: included for comparison.
A further data set relates to S. agalactiae COH-1. To be noted: included for comparison.
The test system of data set [1] is P. aeruginosa P84L PAS2008. Particulars: P. aeruginosa PAO1 LepB(P84L) PAS2008; included for comparison.
For the next data set, the system named is S. aureus P29S PAS8001. To be noted: S. aureus NCTC 8325 SpsB(P29S) PAS8001; included for comparison.

Some results are limits rather than exact numbers.

In the case of Arylomycin A-C16, the MIC in the data set with C. glutamicum DSM 44475 was 4 µg/mL; in the data set on S. pneumoniae R800, 8 µg/mL; in the data set on E. coli P84L PAS0260, 2 µg/mL; in the data set on S. pyogenes MGAS-1, 8 µg/mL; in the data set with R. opacus DSM 1069, 2 µg/mL; in the data set with P. aeruginosa PAO1, above 128 µg/mL. Besides, the MIC was above 128 µg/mL in the data set on S. aureus NCTC 8325; 0.25 µg/mL in the data set on S. epidermidis RP62A; above 128 µg/mL in the data set on S. agalactiae COH-1; 8 µg/mL in data set [1]; 2 µg/mL in the data set with S. aureus P29S PAS8001.
